“And” between values parts separate entries of the source, which are not always exact repeats. Identical values can stand only once.

Here are results for one molecule from patent US20030100109A1, “Methods and compositions for in vitro germination and propagation of polygonatum cirrhifolium royle” (priority 2001, published 2003).

The experiment concerns Polygonatum cirrhifolium Royle seeds. The experiment in a line: Induction of germination (hypocotyl emergence) on modified MS medium with GA3 at diurnal 30/20° C. in dark. The class given is in vivo. Conditions: modified MS culture medium, 20/30° C. in dark. On the procedure:
Ripe purplish berries from plants grown in the wild were collected and dehydrated for 15 days at room temperature (29° C.±2° C.). Seeds were collected from dehydrated berries and washed in tap water with 1-2 drops of Tween-20™ for 2 hours and rinsed three times in distilled water. Seeds were then surface sterilized with 0.1% mercuric chloride (HgCl2) for 3 minutes. Mercuric chloride was removed by washing seeds four times in sterile distilled water. Sterilized, rinsed seeds were placed on semi-solid culture medium in sterile disposable plastic Petri plates (10 cm×2 cm). Macro and micro nutrients in the basal medium were that of Murashige and Skoog's (Murashige, T. and Skoog, F. […]. Physiol Plant 15: 433 -497) but modified to contain 2.2 g/L NH4NO3, 2.0 g/L KNO3, 0.44 g/l CaCl2.2H2O, 0.37 g/L MgSO4.7H20, 0.17 g/L KH2PO4, 37.25 mg/L Na2 EDTA, 27.8 mg/L FeSO4.7H20, 0.83 mg/L KI, 6.2 mg/L H3BO3, 22.3 mg/L MnSO4.4H20, 8.6 mg/L ZnSO4.7H20, 0.25 mg/L Na2 MoO4.2H20, 0.025 mg/L CuSO4.5H2O, 0.025 mg/L CoCl2.6H20. This medium was supplemented with 250 mg/L myo-inosital, 0.5 mgl/l nicotinic acid, 0.5 mg/L pyridoxine HCl, 3 mg/L thiamine HCl, 2 mg/L glycine, 30 g/L sucrose, 7.5 g/L agar and 2, 10, 25, and 50 mg/L gibberellic acid. The pH of the medium was adjusted to 5.8 before adding agar. Medium was sterilized at 121° C. (15 lb. psi pressure) for 20 minutes. […] Seeds with emerged hypocotyl were transferred under aseptic conditions to the above defined basal culture medium containing gibberellic acid at 5, 25, 50 and 100 mg/L. Transferred plants were incubated in an environment having 8-16-hr days under about 2000 lux of light and about 8-16-hr nights in total darkness at a constant temperature of 20° C. ([…]) and at 50-60% RH. Illumination was provided by 40-watt cool, white fluorescent tubes. Germination synchronization as indicated by differentiated epicotyl with emergent coleoptile and radicle was recorded on daily basis. Tables 1 and 2 show the induction of germination as indicated by the emergence of hypocotyl at temperature of 30° C. (±2° C.; dark; RH 50-60%) and diurnal temperature of 30/20° C. (±2° C.; dark; RH 50-60%). In this experiment also there were 4 treatments with varying levels of GA3 2-50 mg/L. Supplemented to the modified MS basal culture medium containing of 2.2 g/L NH4NO3, 2.0 g/L KNO3, 0.44 g/l CaCl2.2H2O, 0.37 g/L MgSO4.7H20, 0.17 g/L KH2PO4, 37.25 mg/L Na2 EDTA, 27.8 mg/L FeSO4.7H20, 0.83 mg/L KI, 6.2 mg/L H3BO3, 22.3 mg/L MnSO4.4H20, 8.6 mg/L ZnSO4.7H20, 0.25 mg/L Na2 MoO4.2H20, 0.025 mg/L CuSO4.5H2O, 0.025 mg/L CoCl2.6H20, […], 0.5 mg/L nicotinic acid, 0.5 mg/L pyridoxine HCl, 3 mg/L thiamine HCl, 2 mg/L glycine, 30 g/L sucrose and 7.5 g/L agar. Cultures were incubated under diurnal temperature regime of 30/20° C. (dark). Each treatment consisted of 15 replicates with 5 seeds in each. Germination is induced in all the treatments (table 2). Maximum germination of 62.12% is obtained at 50 mg/L Of GA3.

For `C=C1C[C@]23C[C@@]1(O)CC[C@H]2[C@@]12C=C[C@H](O)[C@@](C)(C(=O)O1)[C@H]2[C@@H]3C(=O)O` [GA3, gibberellic acid], the Duration of germination runs as follows: (GA3 2 mg/L) 32-73; (GA3 10 mg/L) 34-72; (GA3 25 mg/L) 27-63; (GA3 50 mg/L) 23-58. In addition, the Percent germination (GA3 2 mg/L) was found to be 12.41 ± 6.17%; the Percent germination (GA3 10 mg/L) was determined as 18.06 ± 4.32%; the Percent germination (GA3 25 mg/L) worked out at 46.00 ± 5.11%; the Percent germination (GA3 50 mg/L) is 62.12% and 62.12 ± 3.66%.
